Read-outs that look alike come from different tables or passages of the source.
System: phosphorylation of AKT in HCC70 cells
Test: Cellular assay: phosphorylation of AKT in HCC70 cells (western blotting)
Format: cell-based
Conditions: Homo sapiens, HCC70, 1 h
Protocol: Cellular activity of PI3Kβ inhibitors was determined by quantifying the phosphorylation of AKT in HCC70 cells. AKT phosphorylated at Ser473 and Thr308 were measured using western blotting and specific primary antibodies from Cell Signaling (CST), Danvers, MA. On day 1, HCC70 cells (ATCC #CRL-2315) were seeded into Falcon 12-well cell Culture Plate (Corning #353043) at 100,000 cells per well, in 1 ml complete culture medium (RPMI-1640, GIBCO #11875093) containing 10% heat inactivated FBS (GIBCO #10438026), 1% Pen-Strep (GIBCO #15140122) and incubated at 37° AC, 5% CO2 overnight. On day 2, compound (500 nM) or DMSO (0.1%, Sigma Aldrich #8418) was added and cells were further incubated for 60 min at 37° AC, 5% CO2 in a total volume of 1 ml fresh medium.
At the end of the cell treatment period, media were removed by aspiration and adherent cells were lysed in 100 uL RIPA buffer (Sigma Aldrich #R0278). Equal volume (15 uL) of proteins was resolved by SDS-PAGE and transferred to PVDF (Millipore #IPFL00010) membrane for immunoblot analysis. Primary antibodies to the following proteins were used for immunoblotting: phosphor-AKT (Ser473) (CST #4060), phosphor-AKT (Thr308) (CST #2965), total AKT (CST #9272). Secondary goat anti-rabbit IgG fluorophore conjugated antibody (Invitrogen #A21109) was used to visualize the indicated proteins on an Odyssey CLx imaging system (Li-Cor). Quantification of band intensities was performed using Odyssey 3.0 software. Inhibition of Akt activity was calculated by band intensities using the formula: […]
Index was evaluated by % of AI. Data represent Index+(20˜60%), ++(60%˜80%), +++(80%˜90%), and ++++>90%.

[1] = HCC70 cells, compound 500 nM, 60 min, inhibition of Akt activity from band intensities, read-out: Index of AI (HCC70) p-AKT Thr 308
[2] = HCC70 cells, compound 500 nM, 60 min, inhibition of Akt activity from band intensities, read-out: Index of AI (HCC70) p-AKT ser 473
[3] = read-out: Index of AI (HCC70) p-AKT Thr 308
[4] = read-out: Index of AI (HCC70) p-AKT ser 473

Work on `CCC(Nc1cc(F)cc(F)c1)c1cc(C(=O)N(C)C)cc2c(=O)cc(N3CCOCC3)oc12` (stereo not shown) [Compound 31, 8-(1-((3,5-difluorophenyl)amino)propyl)-N,N-dimethyl-2-morpholino-4-oxo-4H-chromene-6-carboxamide] yielded an inhibition at 0.5 µM [1] of over 90% and an inhibition at 0.5 µM [2] of over 90%.

With `CN(C)C(=O)c1cc(CN2CCc3c(F)cc(F)cc32)c2oc(N3CCO[C@H](CO)C3)cc(=O)c2c1` [Compound 92, (S)-8-((4,6-difluoroindolin-1-yl)methyl)-2-(2-(hydroxymethyl)morpholino)-N,N-dimethyl-4-oxo-4H-chromene-6-carboxamide] the inhibition at 0.5 µM [3] was 60 to 80% and the inhibition at 0.5 µM [4] was 60 to 80%.

Compound `CC(Nc1cc(F)cc(F)c1)c1cc(N=C(N)N)cc2c(=O)cc(N3CCOCC3)oc12` (stereo not shown) [Compound 14, 2-(8-(1-((3,5-difluorophenyl)amino)ethyl)-2-morpholino-4-oxo-4H-chromen-6-yl)guanidine] has an inhibition at 0.5 µM [1] of 20 to 60% and an inhibition at 0.5 µM [2] of 20 to 60%.

With `CN(C)C1CN(C(=O)c2cc(CN3CCc4c(F)cc(F)cc43)c3oc(N4CCOCC4)cc(=O)c3c2)C1` [Compound 46, 8-((4,6-difluoroindolin-1-yl)methyl)-6-(3-(dimethylamino)azetidine-1-carbonyl)-2-morpholino-4H-chromen-4-one] the inhibition at 0.5 µM [1] was 80 to 90% and the inhibition at 0.5 µM [2] was 80 to 90%.

In the case of `C/C(O)=C(\C#N)C(=O)Nc1cc(C(C)Nc2cc(F)cc(F)c2)c2oc(N3CCOCC3)cc(=O)c2c1` (stereo not shown) [Compound 23, (Z)-2-cyano-N-(8-(1-((3,5-difluorophenyl)amino)ethyl)-2-morpholino-4-oxo-4H-chromen-6-yl)-3-hydroxybut-2-enamide], the inhibition at 0.5 µM [1] is reported as 60 to 80% and the inhibition at 0.5 µM [2] is reported as 60 to 80%.

For `O=c1cc(N2CCOCC2)oc2c(CNc3cc(F)cc(F)c3)cc(N3CCOCC3)cc12` [Compound 1, 8-(((3,5-difluorophenyl)amino)methyl)-2,6-dimorpholino-4H-chromen-4-one], the inhibition at 0.5 µM [1] was 60 to 80% and the inhibition at 0.5 µM [2] was 60 to 80%.

With `Cc1cc(CN2CCc3cc(F)ccc32)c2nc(N3CCOCC3)cc(=O)n2c1` [Compound 56, 9-((5-fluoroindolin-1-yl)methyl)-7-methyl-2-morpholino-4H-pyrido[1,2-a]pyrimidin-4-one] the inhibition at 0.5 µM [1] was 60 to 80% and the inhibition at 0.5 µM [2] was 60 to 80%.

`CC(Nc1cc(F)cc(F)c1)c1cc(S(=O)(=O)N2CC(N)C2)cc2c(=O)cc(N3CCOCC3)oc12` (stereo not shown) [Compound 17, 6-((3-aminoazetidin-1-yl)sulfonyl)-8-(1-((3,5-difluorophenyl)amino)ethyl)-2-morpholino-4H-chromen-4-one] was tested, and the inhibition at 0.5 µM [1] was 60 to 80% and the inhibition at 0.5 µM [2] was 60 to 80%.

Compound `O=C(c1cc(CN2CCc3c(F)cc(F)cc32)c2oc(N3CCOCC3)cc(=O)c2c1)N1CCOCC1` [Compound 41, 8-((4,6-difluoroindolin-1-yl)methyl)-6-(morpholine-4-carbonyl)-2-morpholino-4H-chromen-4-one] has an inhibition at 0.5 µM [1] of 80 to 90% and an inhibition at 0.5 µM [2] of 80 to 90%.

For `CCN(C)C(=O)c1cc(CN2CCc3c(F)cc(F)cc32)c2oc(N3CCOCC3)cc(=O)c2c1` [Compound 79, 8-((4,6-difluoroindolin-1-yl)methyl)-N-ethyl-N-methyl-2-morpholino-4-oxo-4H-chromene-6-carboxamide], the inhibition at 0.5 µM [1] was 80 to 90% and the inhibition at 0.5 µM [2] was 80 to 90%.

With `CN(C)C(=O)c1cc(CN2CCc3ccc(F)cc32)c2oc(N3CCOCC3)cc(=O)c2c1` [Compound 70, 8-((6-fluoroindolin-1-yl)methyl)-N,N-dimethyl-2-morpholino-4-oxo-4H-chromene-6-carboxamide] the inhibition at 0.5 µM [1] was 80 to 90% and the inhibition at 0.5 µM [2] was 80 to 90%.

For `O=C(c1cc(CN2CCc3c(F)cc(F)cc32)c2oc(N3CCOCC3)cc(=O)c2c1)N1CCC1` [Compound 45, 6-(azetidine-1-carbonyl)-8-((4,6-difluoroindolin-1-yl)methyl)-2-morpholino-4H-chromen-4-one], the inhibition at 0.5 µM [1] was over 90% and the inhibition at 0.5 µM [2] was over 90%.

`CC(Nc1cc(F)cc(F)c1)c1cc(C(=O)N2CC3(C2)CS(=O)(=O)C3)cc2c(=O)cc(N3CCOCC3)oc12` (stereo not shown) [Compound 28, 8-(1-((3,5-difluorophenyl)amino)ethyl)-6-(2,2-dioxido-2-thia-6-azaspiro[3.3]heptane-6-carbonyl)-2-morpholino-4H-chromen-4-one] was tested, and the inhibition at 0.5 µM [1] was 60 to 80% and the inhibition at 0.5 µM [2] was 60 to 80%.

For `CN(C)C(=O)c1cc(CN2CCc3c(F)cccc32)c2oc(N3CCOCC3)cc(=O)c2c1` [Compound 68, 8-((4-fluoroindolin-1-yl)methyl)-N,N-dimethyl-2-morpholino-4-oxo-4H-chromene-6-carboxamide], the inhibition at 0.5 µM [1] was over 90% and the inhibition at 0.5 µM [2] was over 90%.

With `Cc1cc(CN2CCc3c(F)cccc32)c2nc(N3CCOCC3)cc(=O)n2c1` [Compound 52, 9-[(4-fluoroindolin-1-yl)methyl]-7-methyl-2-morpholino-pyrido[1,2-a]pyrimidin-4-one] the inhibition at 0.5 µM [1] was 60 to 80% and the inhibition at 0.5 µM [2] was 60 to 80%.

In the case of `CC(C)(O)CNC(=O)c1cc(CN2CCc3c(F)cc(F)cc32)c2oc(N3CCOCC3)cc(=O)c2c1` [Compound 84, 8-((4,6-difluoroindolin-1-yl)methyl)-N-(2-hydroxy-2-methylpropyl)-2-morpholino-4-oxo-4H-chromene-6-carboxamide], the inhibition at 0.5 µM [1] is reported as 80 to 90% and the inhibition at 0.5 µM [2] is reported as 80 to 90%.

In the case of `CC(Nc1cc(F)cc(F)c1)c1cc(-c2c[nH][nH]c2=O)cc2c(=O)cc(N3CCOCC3)oc12` (stereo not shown) [Compound 61, 4-(8-(1-((3,5-difluorophenyl)amino)ethyl)-2-morpholino-4-oxo-4H-chromen-6-yl)-1H-pyrazol-3(2H)-one], the inhibition at 0.5 µM [1] is reported as 20 to 60% and the inhibition at 0.5 µM [2] is reported as 20 to 60%.

With `Cc1cc(CN2c3cccc(F)c3CC2C)c2nc(N3CCOCC3)cc(=O)n2c1` (stereo not shown) [Compound 53, 9-((4-fluoro-2-methylindolin-1-yl)methyl)-7-methyl-2-morpholino-4H-pyrido[1,2-a]pyrimidin-4-one] the inhibition at 0.5 µM [1] was 60 to 80% and the inhibition at 0.5 µM [2] was 60 to 80%.

With `C[C@@H]1Cc2c(F)cc(F)cc2N1Cc1cc(C(=O)N(C)C)cc2c(=O)cc(N3CCOCC3)oc12` (single isomer, unassigned) [Compound 65] the inhibition at 0.5 µM [1] was 20 to 60% and the inhibition at 0.5 µM [2] was 20 to 60%.

Work on `CC(Nc1ccc(F)c(F)c1)c1cc(C(=O)N2CC[C@@H](N(C)C)C2)cn2c(=O)cc(N3CCOCC3)nc12` (stereo partly drawn) [Compound 94, 9-(1-((3,4-difluorophenyl)amino)ethyl)-7-((R)-3-(dimethylamino)pyrrolidine-1-carbonyl)-2-morpholino-4H-pyrido[1,2-a]pyrimidin-4-one] yielded an inhibition at 0.5 µM [3] of 60 to 80% and an inhibition at 0.5 µM [4] of 60 to 80%.

Work on `CCOc1cc(CNc2cc(F)cc(F)c2)c2oc(N3CCOCC3)cc(=O)c2c1` [Compound 4, 8-(((3,5-difluorophenyl)amino)methyl)-6-ethoxy-2-morpholino-4H-chromen-4-one] yielded an inhibition at 0.5 µM [1] of 60 to 80% and an inhibition at 0.5 µM [2] of 60 to 80%.

`CC(Nc1cc(F)cc(F)c1)c1cc(NC2=NC(C)(C)CO2)cn2c(=O)cc(N3CCOCC3)nc12` (stereo not shown) [Compound 47, 9-(1-((3,5-difluorophenyl)amino)ethyl)-7-((4,4-dimethyl-4,5-dihydrooxazol-2-yl)amino)-2-morpholino-4H-pyrido[1,2-a]pyrimidin-4-one] gave an inhibition at 0.5 µM [1] of over 90% and an inhibition at 0.5 µM [2] of over 90%.

Compound `CC1Cc2c(F)cc(F)cc2N1Cc1cc(C(=O)N(C)C)cc2c(=O)cc(N3CCOCC3)oc12` (stereo not shown) [Compound 63, 8-((4,6-difluoro-2-methylindolin-1-yl)methyl)-N,N-dimethyl-2-morpholino-4-oxo-4H-chromene-6-carboxamide] has an inhibition at 0.5 µM [1] of over 90% and an inhibition at 0.5 µM [2] of over 90%.

In the case of `CCC(=O)Nc1cc(C(C)Nc2cc(F)cc(F)c2)c2oc(N3CCOCC3)cc(=O)c2c1` (stereo not shown) [Compound 11, N-(8-(1-((3,5-difluorophenyl)amino)ethyl)-2-morpholino-4-oxo-4H-chromen-6-yl)propionamide], the inhibition at 0.5 µM [1] is reported as over 90% and the inhibition at 0.5 µM [2] is reported as over 90%.

With `C[C@@H]1CN(c2cc(=O)n3cc(C(=O)N(C)C)cc(CN4CCc5c(F)cccc54)c3n2)CCO1` [Compound 101, (R)-9-((4-fluoroindolin-1-yl)methyl)-N,N-dimethyl-2-(2-methylmorpholino)-4-oxo-4H-pyrido[1,2-a]pyrimidine-7-carboxamide] the inhibition at 0.5 µM [1] was over 90% and the inhibition at 0.5 µM [2] was over 90%.

With `CC(=O)N(C)c1cc(C(C)Nc2cc(F)cc(F)c2)c2oc(N3CCOCC3)cc(=O)c2c1` (stereo not shown) [Compound 9, N-(8-(1-((3,5-difluorophenyl)amino)ethyl)-2-morpholino-4-oxo-4H-chromen-6-yl)-N-methylacetamide] the inhibition at 0.5 µM [1] was 80 to 90% and the inhibition at 0.5 µM [2] was 80 to 90%.

From patent US20240166617A1, “PHOSPHOINOSITIDE 3 KINASE BETA INHIBITORS AND COMPOSITIONS AND METHODS THEREOF” (Geode Therapeutics Inc., priority 2021, published 2024)
